Source: article PMC9046089, “CCNE1 amplification is synthetic lethal with PKMYT1 kinase inhibition” (Nature, 2022)
Where “and” joins values, the source holds several entries; their conditions need not be identical. Equal values may be shown once. Read-outs that look alike come from different tables or passages of the source.

Tests used:
Type in all cases: cell-based
[1] = system: CDK1; assay: Immune complex histone H1 kinase assay, IP-CDK1, FT282 CCNE1-high cells; details: 24 h; for 32P-labelled histone H1 band intensity, IP-CDK1 kinase assay: 0 nM = 1
Protocol: (§1) Protein concentration was determined by Bradford assay (Thermo Fisher Scientific cat. no. 1856209). For immunoprecipitation of kinases, 200 μg of extract was diluted in 750 μl EBN buffer and 10 μg of CDK1 or CDK2 primary antibody agarose bead conjugates were added to the extract and rotated at 4 °C overnight. Immunoprecipitates were pelleted by centrifugation at 2,500g at 4 °C for 5 min and washed 2× in 750 μl EBN followed by 1 ml EB (80 mM β-glycerol phosphate, 15 mM MgCl2, 20 mM EGTA, 1 mg ml^−1 ovalbumin). After the final wash, the immunoprecipitates were resuspended in 500 μl EB and split into two samples. One sample was used for immunoblot analysis and the other used for kinase assays. Following removal of the final wash, immunoprecipitates were resuspended in 11 μl histone H1 kinase assay buffer (80 mM β-glycerol phosphate, 15 mM MgCl2, 20 mM EGTA, 1 mg ml^−1 ovalbumin, 10 mM DTT, 0.15 μg μl^−1 histone H1 (Sigma-Aldrich, cat. no. H1917), 22 μM ATP, 0.05 μCi μl^−1 γ^32P-ATP (Perkin Elmer NEG502A250UC), pH 7.3) and incubated at room temperature for 30 min. Reactions were quenched by addition of 5 μl 6× sample buffer (60% glycerol, 6% SDS, 0.03% bromophenol blue, 1,500 mM Tris-Cl pH 6.8, 60 mM DTT) and resolved by SDS–PAGE. Gels were exposed to a phosphor imaging screen for 1–2 d and imaged using a Typhoon FLA 9500 (GE Healthcare Life Sciences). 32P-H1 band intensity was quantified using ImageJ v2.0.0.

[2] = system: CDK2; assay: Immune complex histone H1 kinase assay, IP-CDK2, FT282 CCNE1-high cells; details: 24 h
Protocol: as §1, with “Gels were exposed to a phosphor imaging screen for 1–2 d and imaged using a Typhoon FLA 9500 (GE Healthcare Life Sciences).” left out

[3] = system: HCC1569 cells; assay: Cell proliferation assay (Incucyte growth inhibition, synergy); details: three replicates
Excerpt: (§2) Per cent confluence relative to a non-treated control was used to evaluate growth inhibition induced by test compounds. […] (https://synergyfinder.fimm.fi).

[4] = system: RPE1-hTERT TP53-/- Cas9 CCNE1-high cells; assay: Cell proliferation assay (Incucyte growth inhibition)
Excerpt: as §2

[5] = system: TOV112D cells; assay: as above; details: three replicates
Excerpt: as §2

[6] = system: OVCAR3 cells; assay: as above; details: three replicates
Excerpt: as §2

[7] = system: DOTC24510 cells; assay: as above; details: three replicates
Excerpt: as §2

[8] = system: NUGC3 cells; assay: as above; details: three replicates
Excerpt: as §2

[9] = system: COV362 cells; assay: as above; details: three replicates
Excerpt: as §2

[10] = system: SUM149PT cells; assay: as above; details: three replicates
Excerpt: as §2

[11] = system: KYSE30 cells; assay: as above; details: three replicates
Excerpt: as §2

[12] = system: SNU8 cells; assay: as above; details: three replicates
Excerpt: as §2

[13] = system: RPE1-hTERT TP53-/- Cas9 parental cells; assay: as above
Excerpt: as §2

[14] = read-out: RP-6306 EC50 (mM) RPE1 CCNE1 (C2), growth inhibition, three replicates
[15] = read-out: RP-6306 EC50 (mM) RPE1 WT, growth inhibition, three replicates

SMILES	EC50 ([3]; growth inhibition)	EC50 [4, 14]	EC50 [5]	EC50 ([6]; growth inhibition)	EC50 ([7]; growth inhibition)	EC50 ([8]; growth inhibition)	EC50 [10]	EC50 ([11]; growth inhibition)	EC50 [12]	EC50 [13, 15]	also measured
C=CCn1c(=O)c2cnc(Nc3ccc(N4CCN(C)CC4)cc3)nc2n1-c1cccc(C(C)(C)O)n1 [AZD-1775]	51 nM and 56 nM	0.00015 mM and 0.000111 mM	390 nM and 454 nM	78 nM and 98 nM	42 nM and 55 nM	239 nM	232 nM and 196 nM	482 nM and 541 nM	98 nM and 114 nM and 97 nM	159 nM and 154 nM	32P-labelled histone H1 band intensity, IP-CDK1 kinase assay ([1]; AZD-1775 250 nM): 1.298 and 1.203 and 0.7824; 32P-labelled histone H1 band intensity, IP-CDK1 kinase assay ([1]; AZD-1775 500 nM): 1.804 and 1.271 and 1.266; 32P-labelled histone H1 band intensity, IP-CDK1 kinase assay ([1]; AZD-1775 1000 nM): 2.54 and 1.785 and 1.69; CDK1 kinase activity ([1]; FT282 CCNE1-high cells): activation of both kinases; CDK2 kinase activity [2]: activation of both kinases; EC50 ([3]; Homo sapiens, HCC1569, growth inhibition): 54 nM; EC50 ([4]; Homo sapiens, RPE-1, read-out: RP-6306 EC50 (mM) RPE1 CCNE1 (C2), growth inhibition, three replicates): 0.000113 mM; EC50 ([5]; Homo sapiens): 444 nM; EC50 ([6]; Homo sapiens, OVCAR-3, growth inhibition): 94 nM; EC50 ([7]; Homo sapiens, DoTc2-4510, growth inhibition): 38 nM; EC50 ([8]; Homo sapiens, NUGC-3, growth inhibition): 212 nM; EC50 ([9]; COV362, growth inhibition): 49 nM; EC50 ([10]; Homo sapiens): 211 nM; EC50 ([11]; Homo sapiens, KYSE-30, growth inhibition): 437 nM; EC50 ([13]; Homo sapiens, RPE-1, read-out: RP-6306 EC50 (mM) RPE1 WT, growth inhibition, three replicates): 172 nM
C[C@@]1(O)CCC[C@H]1n1c(=O)c(C(F)F)cc2cnc(NC3CCN(S(C)(=O)=O)CC3)nc21 [PF-06873600]	37 nM and 41 nM and 40 nM	0.000125 mM	43 nM and 47 nM and 42 nM	46 nM and 37 nM and 35 nM	56 nM and 41 nM and 28 nM	28 nM and 25 nM and 22 nM	75 nM and 85 nM and 80 nM	32 nM and 22 nM and 29 nM	21 nM and 50 nM and 43 nM	98 nM and 79 nM and 106 nM	EC50 ([9]; growth inhibition): 94 nM and 93 nM
